From publication PMC4080778, “Steroid conversion with CYP106A2 – production of pharmaceutically interesting DHEA metabolites” (Microbial Cell Factories, 2014) come the findings set out here.

The experiment concerns the target T1, CYP106A2 (Priestia megaterium, UniProt Q06069).
T1 sequence (Q06069 1-410): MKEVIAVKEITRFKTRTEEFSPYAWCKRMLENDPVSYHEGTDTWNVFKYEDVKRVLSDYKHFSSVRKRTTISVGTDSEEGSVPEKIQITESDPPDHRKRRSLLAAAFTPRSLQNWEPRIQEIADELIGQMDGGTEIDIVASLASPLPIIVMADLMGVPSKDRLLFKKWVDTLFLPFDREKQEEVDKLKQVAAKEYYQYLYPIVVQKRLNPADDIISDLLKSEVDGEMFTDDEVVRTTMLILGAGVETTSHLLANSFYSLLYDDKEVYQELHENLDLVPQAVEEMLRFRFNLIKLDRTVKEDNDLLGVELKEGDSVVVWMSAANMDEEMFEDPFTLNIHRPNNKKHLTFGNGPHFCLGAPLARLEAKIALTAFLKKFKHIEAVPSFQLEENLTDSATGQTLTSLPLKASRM
As to the kind of experiment: UV-vis difference spectroscopy titration (type I high-spin shift, tandem cuvettes). It counts as binding.

For `C[C@]12CCC(=O)C=C1CC[C@@H]1[C@@H]2CC[C@]2(C)C(=O)CC[C@@H]12` [androstenedione], the Kd came out at 92 ± 11 µM.
